# Measurements: US9296748B2, “Pyridinones” (Boehringer Ingelheim International GmbH, priority 2013, dated 2016)
# Target: BRD4-BD1 (Homo sapiens (Human), UniProt O60885)
# Assay: BRD4-H4 Tetraacetylated Peptide Inhibition AlphaScreen
# Assay type: binding
# Conditions: GST-BRD4-BD1 (aa 44-168), biotinylated Acetyl-Histone H4 peptide
# Procedure: Compounds are diluted in serial dilution 1:5 in assay buffer from 10 mM stock in DMSO (100 μM start concentration) in white OptiPlate-384 (PerkinElmer). […] Subsequently, 6 μl of premixed AlphaLISA Glutathione Acceptor Beads and AlphaScreen Streptavidin Donor Beads from PerkinElmer (in assay buffer at a concentration of 10 μg/ml each) are added and the samples are incubated for 30 min at RT in the dark (shaking 300 rpm). Afterwards, the signal is measured in a PerkinElmer Envision HTS Multilabel Reader using the AlphaScreen protocol from PerkinElmer. […] Negative control values are entered as low basis value when using the software GraphPad Prism for calculations. Furthermore, a positive control (probe molecule JQ1+ with protein/peptide mix) is pipetted. Determination of IC50 values are carried out using GraphPad Prism 3.03 software (or updates thereof).
row,IC50 [µM],Compound
1,0.033,Cc1cc(-c2nc3cnccc3n2Cc2ccc(Cl)cc2)cn(C)c1=O [II-23]
2,0.012,Cc1cc(-c2nc3cnc(N4CCOC[C@@H]4C)nc3n2[C@@H](C)c2ccccc2)cn(C)c1=O [IV-11]
3,0.217,Cc1cc(-c2nc3ccc(OC4CCN(C)CC4)nc3n2C(C)c2ccccn2)cn(C)c1=O (stereo not shown) [III-9]
4,0.121,CN1CCN(c2ccc3nc(-c4cn(C)c(=O)cn4)n(Cc4ccccc4)c3c2)CC1 [Example I-20]
5,4.81,Cc1cc(-c2nc3cc(Cl)c(Cl)cc3n2Cc2ccc(Cl)c(Cl)c2)cn(C)c1=O [IV-13]
6,0.117,Cc1cc(-c2nc3ccc(OC(C)C)nc3n2[C@@H](C)c2ccccc2)nn(C)c1=O [III-5]
7,0.012,Cc1cc(-c2nc3cnc(N4CCN(C)CC4)cc3n2Cc2ccccc2)nn(C)c1=O [II-5]
8,0.068,"Cc1cc(-c2nc3cnc(N)cc3n2Cc2ccccc2)cn(C)c1=O [II-16, 5-(6-Amino-1-benzyl-1H-imidazo[4,5-c]pyridin-2-yl)-1,3-dimethyl-1H-pyridin-2-one]"
9,0.016,Cc1cc(-c2nc3cc(C4CCOCC4)cnc3n2Cc2ccccc2)cn(C)c1=O [IV-7]
10,0.103,Cc1cc(-c2nc3ccc(C4CCOCC4)cc3n2[C@@H](C)c2ccccn2)cn(C)c1=O [Example I-27]
11,0.042,"Cc1cc(-c2nc3cnc(OCC4CC4)cc3n2C(C)c2ccccn2)cn(C)c1=O (racemic) [II-21, 5-[6-Cyclopropylmethoxy-1-(1-pyridin-2-yl-ethyl)-1H-imidazo[4,5-c]pyridin-2-yl]-1,3-dimethyl-1H-pyridin-2-one]"
12,0.515,Cn1cc(-c2nc3ccc(N4CCOCC4)cc3n2Cc2ccccc2)ccc1=O [Example I-4]
13,0.07,Cc1cnc2c(c1)nc(-c1cc(C)c(=O)n(C)c1)n2Cc1ccccc1 [IV-8]
14,0.062,COC[C@H](C)n1c(-c2cc(C)c(=O)n(C)n2)nc2cnc(N3CCOC[C@@H]3C)cc21 [II-30]
15,0.109,Cc1cc(-c2nc3ccc(N4CCOCC4)cc3n2Cc2ccccc2)c[nH]c1=O [Example I-3]
16,0.163,CCn1cc(-c2nc3cnc(N4CCOCC4)cc3n2Cc2ccccc2)cc(C)c1=O [II-6]
17,0.063,Cc1cc(-c2nc3ccc(C4(C(F)(F)F)CC4)cc3n2Cc2ccccn2)cn(C)c1=O [Example I-30]
18,0.044,COc1ccc2nc(-c3cc(C)c(=O)n(C)c3)n(Cc3ccccc3)c2c1 [Example I-22]
19,0.201,Cc1nc(-c2nc3ccccc3n2Cc2ccccc2)cn(C)c1=O [Example I-21]

row,IC50 [µM],Compound
1,0.06,Cc1cc(-c2nc3ccncc3n2Cc2ccccc2)cn(C)c1=O [IV-4]
2,0.047,Cc1cc(-c2nc3ccc(C4CN(C)CCO4)cc3n2[C@@H](C)c2ccccc2)nn(C)c1=O (stereo partly shown) [Example I-33]
3,1.39,Cn1nc(-c2nc3ccccc3n2Cc2ccccc2)ccc1=O [Example I-15]
4,0.042,Cc1cc(-c2nc3cnc(N4CCOC[C@@H]4C)cc3n2Cc2ccccc2)cn(C)c1=O [II-15]
5,0.03,Cc1cc(-c2nc3cnc(N(C)C)cc3n2Cc2ccccc2)cn(C)c1=O [II-9]
6,1.11,Cn1cc(-c2nc3ccccc3n2Cc2ccccc2)ncc1=O [Example I-18]
7,0.211,Cc1cc(-c2nc3cnc(C4=CCOCC4)cc3n2C(C)c2ccccn2)cn(C)c1=O (stereo not shown) [II-35]
8,0.034,Cc1cc(-c2nc3cnc(N4CCN(C)CC4)cc3n2C(C)c2ccccn2)cn(C)c1=O (stereo not shown) [II-22]
9,0.019,Cc1cc(-c2nc3ccc(N4CCOCC4)cc3n2Cc2ccccc2)cn(C)c1=O [Example I-6]
10,0.049,CCn1cc(-c2nc3ccc(N4CCN(C)CC4)cc3n2Cc2ccccc2)cc(C)c1=O [Example I-10]
11,0.102,"Cc1cc(-c2nc3cnc(-n4ccnc4)cc3n2Cc2ccccc2)cn(C)c1=O [II-13, 5-(1-Benzyl-6-imidazol-1-yl-1H-imidazo[4,5-c]pyridin-2-yl)-1,3-dimethyl-1H-pyridin-2-one]"
12,0.169,Cc1cc(-c2nc3cnc(C(C)C)cc3n2[C@@H](C)c2ccccn2)cn(C)c1=O [II-33]
13,0.023,Cc1cc(-c2nc3cc(N4CCN(C)CC4)cnc3n2Cc2ccccc2)cn(C)c1=O [IV-6]
14,0.054,Cc1cc(-c2nc3cnc(N4CCOCC4)cc3n2Cc2ccccn2)cn(C)c1=O [II-2]
15,0.16,Cc1cc(-c2nc3cnc(N4CCOC[C@@H]4C)cc3n2Cc2ccccn2)cn(C)c1=O [II-17]
16,0.018,"Cc1cc(-c2nc3cnc(N4CCOCC4)cc3n2Cc2ccccc2)cn(C)c1=O [II-3, 5-(1-Benzyl-6-morpholin-4-yl-1H-imidazo[4,5-c]pyridin-2-yl)-1,3-dimethyl-1H-pyridin-2-one]"
17,0.05,Cc1cc(-c2nc3cnc(N4CCOCC4)nc3n2Cc2ccccc2)cn(C)c1=O [IV-14]
18,0.096,COC[C@H](C)n1c(-c2cc(C)c(=O)n(C)c2)nc2ccc(C3CCOCC3)cc21 [Example I-26]
